{"source": "paper PMC6443244", "about": "(Cell chemical biology, 2016)", "target": "Fatty acid synthase (FASN) (Homo sapiens, UniProt P49327)", "sequence (P49327 whole entry)": "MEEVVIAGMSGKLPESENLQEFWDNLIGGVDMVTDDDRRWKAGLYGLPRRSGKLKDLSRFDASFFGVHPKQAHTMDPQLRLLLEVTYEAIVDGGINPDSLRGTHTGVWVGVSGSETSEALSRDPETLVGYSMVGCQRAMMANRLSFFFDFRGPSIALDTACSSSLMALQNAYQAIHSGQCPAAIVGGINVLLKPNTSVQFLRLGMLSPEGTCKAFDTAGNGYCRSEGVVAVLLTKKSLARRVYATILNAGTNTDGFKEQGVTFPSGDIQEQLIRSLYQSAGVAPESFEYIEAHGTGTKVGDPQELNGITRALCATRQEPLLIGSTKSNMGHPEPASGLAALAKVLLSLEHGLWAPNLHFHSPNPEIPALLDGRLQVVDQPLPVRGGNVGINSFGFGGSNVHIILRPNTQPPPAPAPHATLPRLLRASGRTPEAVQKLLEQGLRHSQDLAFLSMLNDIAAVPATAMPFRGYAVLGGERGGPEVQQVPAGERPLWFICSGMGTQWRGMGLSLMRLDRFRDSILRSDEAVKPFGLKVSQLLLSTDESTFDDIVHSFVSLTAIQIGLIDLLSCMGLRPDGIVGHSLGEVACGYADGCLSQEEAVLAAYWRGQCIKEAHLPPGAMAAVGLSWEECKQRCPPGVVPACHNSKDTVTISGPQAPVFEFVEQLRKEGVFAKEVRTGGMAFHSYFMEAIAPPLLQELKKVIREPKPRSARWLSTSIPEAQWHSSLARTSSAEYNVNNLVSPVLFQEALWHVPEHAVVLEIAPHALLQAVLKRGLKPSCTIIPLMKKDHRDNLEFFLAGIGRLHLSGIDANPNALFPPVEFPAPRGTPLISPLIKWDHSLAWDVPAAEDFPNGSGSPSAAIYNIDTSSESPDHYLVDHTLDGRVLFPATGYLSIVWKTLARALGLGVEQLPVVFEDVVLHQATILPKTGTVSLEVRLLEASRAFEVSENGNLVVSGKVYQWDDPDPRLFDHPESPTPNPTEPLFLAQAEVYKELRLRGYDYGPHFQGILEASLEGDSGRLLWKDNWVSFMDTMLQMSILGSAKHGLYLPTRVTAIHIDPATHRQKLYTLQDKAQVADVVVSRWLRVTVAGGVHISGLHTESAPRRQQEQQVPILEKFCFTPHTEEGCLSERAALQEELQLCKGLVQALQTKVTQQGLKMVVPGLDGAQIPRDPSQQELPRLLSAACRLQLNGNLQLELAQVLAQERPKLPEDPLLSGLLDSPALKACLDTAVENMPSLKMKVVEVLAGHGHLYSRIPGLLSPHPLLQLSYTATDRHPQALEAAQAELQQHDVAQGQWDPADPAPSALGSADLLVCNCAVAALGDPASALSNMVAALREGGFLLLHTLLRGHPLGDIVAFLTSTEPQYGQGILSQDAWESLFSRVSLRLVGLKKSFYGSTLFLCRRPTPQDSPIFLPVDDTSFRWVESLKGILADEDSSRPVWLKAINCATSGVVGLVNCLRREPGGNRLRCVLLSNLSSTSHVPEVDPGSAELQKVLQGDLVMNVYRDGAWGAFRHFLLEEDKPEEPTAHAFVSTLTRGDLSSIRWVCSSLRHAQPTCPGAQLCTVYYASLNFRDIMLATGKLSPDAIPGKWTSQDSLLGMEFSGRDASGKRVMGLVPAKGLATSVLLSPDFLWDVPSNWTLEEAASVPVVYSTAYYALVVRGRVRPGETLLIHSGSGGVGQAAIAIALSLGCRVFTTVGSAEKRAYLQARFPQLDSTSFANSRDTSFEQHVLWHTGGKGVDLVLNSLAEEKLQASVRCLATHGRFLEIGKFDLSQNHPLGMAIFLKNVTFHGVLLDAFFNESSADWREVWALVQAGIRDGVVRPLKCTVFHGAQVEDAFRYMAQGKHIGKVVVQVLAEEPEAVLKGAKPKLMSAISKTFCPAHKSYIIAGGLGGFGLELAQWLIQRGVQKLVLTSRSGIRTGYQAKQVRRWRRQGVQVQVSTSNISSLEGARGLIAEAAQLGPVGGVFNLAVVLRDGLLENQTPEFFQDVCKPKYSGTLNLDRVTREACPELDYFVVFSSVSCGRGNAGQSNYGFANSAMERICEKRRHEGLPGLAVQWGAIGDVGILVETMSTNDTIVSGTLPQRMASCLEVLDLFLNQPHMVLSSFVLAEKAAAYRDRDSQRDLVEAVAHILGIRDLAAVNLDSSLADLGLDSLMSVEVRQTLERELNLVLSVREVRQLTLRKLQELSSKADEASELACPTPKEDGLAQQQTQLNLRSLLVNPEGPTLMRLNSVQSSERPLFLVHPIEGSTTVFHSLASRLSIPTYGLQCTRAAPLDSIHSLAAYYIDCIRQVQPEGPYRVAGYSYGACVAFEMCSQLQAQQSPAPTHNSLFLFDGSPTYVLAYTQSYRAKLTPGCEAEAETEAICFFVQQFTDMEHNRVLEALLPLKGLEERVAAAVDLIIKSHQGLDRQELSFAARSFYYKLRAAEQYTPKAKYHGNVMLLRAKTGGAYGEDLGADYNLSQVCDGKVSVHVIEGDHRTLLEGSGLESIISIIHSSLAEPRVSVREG", "experiment": "[…]malonyl-CoA incorporation into fatty acids by purified FASN", "assay_type": "biochemical"}
{"smiles": "Cc1sc2ncnc(NC3CCN(Cc4ccccc4)C3)c2c1C", "note": "(stereo not shown) [Fasnall]", "values": [{"measurement": "IC50", "result": 3.71, "unit": "µM"}]}
